In patent US20240182513A1, “SEPARATION OF METAL IONS FROM A SAMPLE USING GLYCOLIPIDS” (ARIZONA BOARD OF REGENTS ON BEHALF OF THE UNIVERSITY OF …, priority 2021, published 2024):

Assays:
[1] = Ion flotation of uranium from Monument Valley groundwater with rhamnolipid collectors; settings: pH 6.5
Excerpt: Groundwater Collection and Analysis: The Monument Valley site is in Cane Valley, AZ, which is in northeastern Arizona. Groundwater was collected from monitoring well 662, which is down gradient of the source zone within the boundaries of the uranium groundwater plume. Samples were collected using dedicated bladder pumps and a QED Micropurge Controller. Groundwater was collected into a 50 L LDPE carboy (Thermo Scientific Nalgene) after the groundwater's pH and dissolved oxygen levels from the pump stabilized. The solution was stored as received, on the lab bench at ambient temperature until use.
For cation and anion analysis, groundwater was filtered ([…]) then diluted with 2% trace metals grade nitric acid (Fisher Scientific, Waltham, MA) in metal-free polypropylene 15 mL centrifuge tubes (VWR, Radnor, PA). Cations were analyzed using an Elan DRC-II inductively coupled plasma mass spectrometer (ICP-MS). Anions (F^−1, Cl^−1, Br^−1, NO2^−1, NO3^−1, […], and SO4^−2) were analyzed by using a Thermo Scientific Dionex ICS-6000 high-performance ion chromatography system. Data generated in this geochemical analysis were used to model uranium speciation using Visual MINTEQ 3.1. Only major solution constituents—those greater than 10 μg L^−1 for metals or 5 μmol L^−1 for anions—were included in the experiment, and carbonates were excluded because they are stripped from solution when nitrogen is sparged in the flotation process.
Chemicals: Both biosynthetic and synthetic monorhamnolipid collectors were tested for flotation efficiency. Biosynthetic monorhamnolipid tail lengths ‘m’ and ‘n’ range from 4 to 12 due to natural congener variation. Synthetic monorhamnolipids (Rha-C10-C10, Rha-C12-C12, or Rha-C14-C14) were synthesized with equal length tails where ‘m’=‘n’=6-14. The production and purification of biosynthetic monorhamnolipids (bio-mRL) from Pseudomonas aeruginosa ATCC 9027 has been previously described by Hogan et al., J. Hazard. Mater. 2017, 340, pp. 171-178. This organism exclusively produces monorhamnolipids—rhamnolipids with a single rhamnose sugar in the hydrophilic moiety of the molecule—as a congener mixture with varying hydrophobic tail lengths, in which the rhamnosyl-β-hydroxydecanoyl-β-hydroxydecanoate (C10-C10) dominates at 75-85 wt %. A molecular weight of 504 g mol^−1 (based on the C10-C10 structure) was used to estimate the bio-mRL concentration. Synthetic monorhamnolipids with decyl (Rha-C10-C10), dodecyl (Rha-C12-C12), and tetradecyl (Rha-C14-C14) hydrophobic moieties were prepared for comparative experiment. The molecular weights of the synthetic monorhamnolipids are 504.7, 560.8, and 616.9, respectively. All solutions were made using nanopure water (≥18 MΩ-cm). pH was adjusted with HNO3 and NaOH. […]

[2] = Example 2.2 glycolipid facilitated chemical precipitation: magnesium
Procedure: Surfactants: Each of the solutions were made by dissolving a single glycolipid (GlycoSurf Inc., Salt Lake City, >95% purity) in nanopure water (≥18 MΩ-cm) then adjusting the pH to 6.90±0.05 with HNO3 and NaOH. Nine different structural variants were selected to examine the effect of the headgroup and number and length of the hydrophobic tail(s) on glycolipids as a chemical precipitant (Table 6). These solutions were made in advance and stored at 4° C. for up to one month and brought to room temperature (˜25° C.) before each experiment.
Metals: Three metals were tested for binding with the glycolipids: lead as […] (Fisher Scientific, Waltham, MA, 99% purity), lanthanum as La(NO3)3 6(H2O) (Sigma-Aldrich, St. Louis, MO, 99.99% purity), and magnesium as Mg(NO3)2 6(H2O) (Sigma-Aldrich, St. Louis, MO, 99% purity. Metal solutions (5 mM) were made using nanopure water (≥18 MΩ-cm) and were not pH balanced.
Each metal (Pb^2+, La^3+, and Mg^2+) was evaluated separately with each of the nine glycolipids. […]
(§1) Samples for the filtration treatment were vortexed for 5 sec, then a 0.6 ml aliquot was collected with a 1 ml syringe. […] Following collection, the metal content in all samples was analyzed at the Arizona Laboratory for Emerging Contaminants (ALEC) at the University of Arizona using inductively coupled plasma mass spectrometry.
Calculations: The efficiency of metal removal (R) was determined for each of the three treatments: Ra for the active mixing/adsorption treatment, Rf for the glycolipid and filtration treatment, and Rc for the glycolipid and centrifugation treatment. R was determined by comparing the solution metal concentration of the treatment sample (Cnt for the glycolipid with no further treatment sample, Cf for the glycolipid and filtration sample, and Cc for the glycolipid and centrifugation sample) to the solution metal concentration of a glycolipid-free control (Ci) that underwent the same handling and processing steps. […]

[3] = Example 2.2 glycolipid facilitated chemical precipitation: lanthanum
Procedure: (§2) Nine different structural variants were selected to examine the effect of the headgroup and number and length of the hydrophobic tail(s) on glycolipids as a chemical precipitant (Table 6). These solutions were made in advance and stored at 4° C. for up to one month and brought to room temperature (˜25° C.) before each experiment.
(§3) Each metal (Pb^2+, La^3+, and Mg^2+) was evaluated separately with each of the nine glycolipids. […] The reactions were mixed in the order of nanopure water (≥18 MΩ-cm), glycolipid solution, then metal solution. The metal and glycolipid solutions were continuously stirred as they were aliquoted into the reaction tubes. All experiments were performed in triplicate.
The reaction tubes were rotated overnight (16 to 24 h) and then three samples were collected from each tube to measure metal removal from solution: (1) no further treatment; (2) an additional filtration step; and (3) an additional centrifugation step. Briefly, for the glycolipid adsorption treatment samples all tubes were vortexed for approximately 5 sec immediately before sampling to ensure that non-adsorbed glycolipid-metal complexes were mixed into the solution column. After mixing, 0.1 ml of the reaction solution was aliquoted into a dilution tube of 2% trace metal grade nitric acid for analysis. […]
as §1
R was determined by comparing the solution metal concentration of the treatment sample (Cnt for the glycolipid with no further treatment sample, Cf for the glycolipid and filtration sample, and Cc for the glycolipid and centrifugation sample) to the solution metal concentration of a glycolipid-free control (Ci) that underwent the same handling and processing steps. […]

[4] = Example 2.2 glycolipid facilitated chemical precipitation: lead; settings: for Pb^2+ maximum removal: precipitation without further treatment, maximum over molar ratios
Procedure: as §2, §3
The reaction tubes were rotated overnight (16 to 24 h) and then three samples were collected from each tube to measure metal removal from solution: (1) no further treatment; (2) an additional filtration step; and (3) an additional centrifugation step. Briefly, for the glycolipid adsorption treatment samples all tubes were vortexed for approximately 5 sec immediately before sampling to ensure that non-adsorbed glycolipid-metal complexes were mixed into the solution column. After mixing, 0.1 ml of the reaction solution was aliquoted into a dilution tube of 2% trace metal grade nitric acid for analysis. This sample measures the loss of metal due to the formation of hydrophobic scums or adsorbed complexes not attributable to the subsequent filtration or centrifugation treatments.
Samples for the filtration treatment were vortexed for 5 sec, then a 0.6 ml aliquot was collected with a 1 ml syringe. A GHP acrodisc disk filter (hydrophilic polypropylene membrane, 0.45 µm pore size, 25 mm disc diameter) from Pall Life Sciences (Port Washington, New York) or PTFE disk filters (hydrophobic polytetrafluoroethylene membrane, 0.45 μm pore size, 25 mm disc diameter) from Fisher Scientific (Waltham, MA) was then placed onto the end of the syringe and approximately 0.1 ml of filtrate was collected into a dilution tube for analysis. The centrifuge sample was collected by centrifuging the remaining reaction solution at 10,000 RCF for 15 min. Approximately 0.1 ml of the supernatant was aliquoted into a dilution tube for analysis. Following collection, the metal content in all samples was analyzed at the Arizona Laboratory for Emerging Contaminants (ALEC) at the University of Arizona using inductively coupled plasma mass spectrometry.
R was determined by comparing the solution metal concentration of the treatment sample (Cnt for the glycolipid with no further treatment sample, Cf for the glycolipid and filtration sample, and Cc for the glycolipid and centrifugation sample) to the solution metal concentration of a glycolipid-free control (Ci) that underwent the same handling and processing steps. The equations for these calculations are shown below: […]

[5] = precipitation followed by centrifugation, molar ratio not stated / over ratios
[6] = precipitation without further treatment, 5:1 ratio
[7] = precipitation without further treatment, molar ratio not stated

CCCCCCCC(CC(=O)O)OC(=O)CC(CCCCCCC)O[C@@H]1OC(C)[C@H](O)C(O)C1O[C@@H]1OC(C)[C@H](O)C(O)C1O (some centres unmarked) [dirhamnolipid]
uranium removal percentage [1]: about 75%

CCCCCCCC(CC(=O)O)OC1OC[C@@H](O)[C@H](O)[C@H]1O (some centres unmarked) [Xyl-C10]
Mg^2+ removal [2, 5]: ≤ 30% | La^3+ removal [3, 5]: ≤ 30% | Pb^2+ removal [4, 5]: ≤ 30% | Pb^2+ maximum removal [4]: approximately 30%

CCCCCCCCCCCC(CC(=O)O)OC1O[C@H](CO)[C@H](O)[C@H](O)[C@H]1O (some centres unmarked) [Gal-C14]
Mg^2+ removal [2, 6]: 11.6% | La^3+ removal [3, 6]: 57.9% | Pb^2+ maximum removal [4]: 1.5%

CCCCCCCC(CC(=O)O)OC1O[C@H](CO)[C@H](O)[C@H](O)[C@H]1O (some centres unmarked) [Gal-C10]
Pb^2+ removal ([4]; precipitation followed by filtration, 2:1 molar ratio): 95.5% | Pb^2+ maximum removal [4]: 38%

CCCCCCCCCCCC(CC(=O)O)OC1OC[C@@H](O)[C@H](O)[C@H]1O (some centres unmarked) [Xyl-C14]
La^3+ removal [3, 7]: 42.6% | Pb^2+ maximum removal [4]: < 7%

CCCCCCCCCCCC(CC(=O)O)OC(=O)CC(CCCCCCCCCCC)OC1OC[C@@H](O)[C@H](O)[C@H]1O (some centres unmarked) [Xyl-C14-C14]
Mg^2+ removal [2, 7]: 17.1% | Pb^2+ maximum removal [4]: approximately 30%
